The source of these data is patent publication US20050197350A1, “Novel quinoline, tetrahydroquinazoline, and pyrimidine derivatives and methods of treatment related to the use thereof” (TAISHO PHARMACEUTICAL CO., LTD., priority 2003, published 2005).

SMILES strings stand for the structures.

This assay has as its system MCH receptors. Briefly: MCH receptor activity class (method not given). Conditions: class by percent of control at 10^-7 M or IC50.

Turning to `CN(C)c1ccnc(N[C@H]2CC[C@@H](NC(=O)c3csc(-c4cccs4)n3)CC2)n1` [compound 364, N-(cis-4-{[4-(dimethylamino)pyrimidin-2-yl]amino}cyclohexyl)-2-(2-thienyl)-1,3-thiazole-4-carboxamide], the class is 1 (Class 1: The value of percent of control at 10^−7 M was less than 40% or the value of IC50 was less than 50 nM.).
Then `COc1cccc(C(=O)NC[C@H]2CC[C@@H](Nc3nccc(N(C)C)n3)CC2)c1` [compound 365], with 3 (Class 3 The value of percent of control at 10^−7 M was more than 60% or the value of IC50 was more than 200 nM.); and `CN(C)c1ccnc(N[C@H]2CC[C@@H](CNC(=O)c3cccc(Br)c3)CC2)n1` [compound 366], with 3 (Class 3 The value of percent of control at 10^−7 M was more than 60% or the value of IC50 was more than 200 nM.); and `CN(C)c1ccnc(N[C@H]2CC[C@@H](CNC(=O)c3ccc(Br)cc3)CC2)n1` [compound 367], with 3 (Class 3 The value of percent of control at 10^−7 M was more than 60% or the value of IC50 was more than 200 nM.).
The figure for `CN(C)c1ccnc(N[C@H]2CC[C@@H](CNC(=O)c3ccc4nonc4c3)CC2)n1` [compound 368] is 3 (Class 3 The value of percent of control at 10^−7 M was more than 60% or the value of IC50 was more than 200 nM.); for `CN(C)c1ccnc(N[C@H]2CC[C@@H](CNC(=O)c3cccc(Cl)c3)CC2)n1` [compound 369] it is 3 (Class 3 The value of percent of control at 10^−7 M was more than 60% or the value of IC50 was more than 200 nM.); for `CN(C)c1ccnc(N[C@H]2CC[C@@H](CNC(=O)c3ccc(Cl)cc3)CC2)n1` [compound 370] it is 2 (Class 2: The value of percent of control at 10^−7 M was from 40% to 60% or the value of IC′50 was from 50 nM to 200 nM.).
Then `CN(C)c1ccnc(N[C@H]2CC[C@@H](CNC(=O)/C=C/c3ccccc3)CC2)n1` [compound 371], with 2 (Class 2: The value of percent of control at 10^−7 M was from 40% to 60% or the value of IC′50 was from 50 nM to 200 nM.); and `CN(C)c1ccnc(N[C@H]2CC[C@@H](CNC(=O)c3ccc(Cl)c([N+](=O)[O-])c3)CC2)n1` [compound 372], with 2 (Class 2: The value of percent of control at 10^−7 M was from 40% to 60% or the value of IC′50 was from 50 nM to 200 nM.).
For `CN(C)c1ccnc(N[C@H]2CC[C@@H](CNC(=O)Cc3ccc(Cl)cc3)CC2)n1` [compound 373], the class is 2 (Class 2: The value of percent of control at 10^−7 M was from 40% to 60% or the value of IC′50 was from 50 nM to 200 nM.).
Regarding `CN(C)c1ccnc(N[C@H]2CC[C@@H](CNC(=O)c3cccc(C#N)c3)CC2)n1` [compound 374], the class is listed as 3 (Class 3 The value of percent of control at 10^−7 M was more than 60% or the value of IC50 was more than 200 nM.).
The figure for `CN(C)c1ccnc(N[C@H]2CC[C@@H](CNC(=O)c3cc(Cl)cc(Cl)c3)CC2)n1` [compound 375] is 2 (Class 2: The value of percent of control at 10^−7 M was from 40% to 60% or the value of IC′50 was from 50 nM to 200 nM.); for `CN(C)c1ccnc(N[C@H]2CC[C@@H](CNC(=O)c3ccc(Cl)c(Cl)c3)CC2)n1` [compound 376] it is 2 (Class 2: The value of percent of control at 10^−7 M was from 40% to 60% or the value of IC′50 was from 50 nM to 200 nM.); for `CN(C)c1ccnc(N[C@H]2CC[C@@H](CNC(=O)C(c3ccccc3)c3ccccc3)CC2)n1` [compound 377, N-[(cis-4-{[4-(dimethylamino)pyrimidin-2-yl]amino}cyclohexyl)methyl]-2,2-diphenylacetamide] it is 1 (Class 1: The value of percent of control at 10^−7 M was less than 40% or the value of IC50 was less than 50 nM.).
Consider `CN(C)c1ccnc(N[C@H]2CC[C@@H](CNC(=O)c3ccc(F)c(F)c3)CC2)n1` [compound 378], for which the class is given as 3 (Class 3 The value of percent of control at 10^−7 M was more than 60% or the value of IC50 was more than 200 nM.).
Then `CN(C)c1ccnc(N[C@H]2CC[C@@H](CNC(=O)c3cc(F)cc(F)c3)CC2)n1` [compound 379], with 3 (Class 3 The value of percent of control at 10^−7 M was more than 60% or the value of IC50 was more than 200 nM.); and `COc1ccc(OC)c(CC(=O)NC[C@H]2CC[C@@H](Nc3nccc(N(C)C)n3)CC2)c1` [compound 380], with 3 (Class 3 The value of percent of control at 10^−7 M was more than 60% or the value of IC50 was more than 200 nM.).
Consider `CCSc1ncccc1C(=O)NC[C@H]1CC[C@@H](Nc2nccc(N(C)C)n2)CC1` [compound 381], for which the class is 3 (Class 3 The value of percent of control at 10^−7 M was more than 60% or the value of IC50 was more than 200 nM.).
For the compound `CN(C)c1ccnc(N[C@H]2CC[C@@H](CNC(=O)c3ccc(F)cc3)CC2)n1` [compound 382], the class is on record as 3 (Class 3 The value of percent of control at 10^−7 M was more than 60% or the value of IC50 was more than 200 nM.).
The figure for `CN(C)c1ccnc(N[C@H]2CC[C@@H](CNC(=O)c3cc(F)cc(C(F)(F)F)c3)CC2)n1` [compound 383] is 3 (Class 3 The value of percent of control at 10^−7 M was more than 60% or the value of IC50 was more than 200 nM.); for `CN(C)c1ccnc(N[C@H]2CC[C@@H](CNC(=O)c3cc(F)c(Cl)cc3Cl)CC2)n1` [compound 384] it is 2 (Class 2: The value of percent of control at 10^−7 M was from 40% to 60% or the value of IC′50 was from 50 nM to 200 nM.).
Turning to `CCCCCC(=O)NC[C@H]1CC[C@@H](Nc2nccc(N(C)C)n2)CC1` [compound 385], the class is 3 (Class 3 The value of percent of control at 10^−7 M was more than 60% or the value of IC50 was more than 200 nM.).
With `CN(C)c1ccnc(N[C@H]2CC[C@@H](CNC(=O)c3ccc(I)cc3)CC2)n1` [compound 386], the class is 3 (Class 3 The value of percent of control at 10^−7 M was more than 60% or the value of IC50 was more than 200 nM.).
The figure for `CSc1ncccc1C(=O)NC[C@H]1CC[C@@H](Nc2nccc(N(C)C)n2)CC1` [compound 387] is 3 (Class 3 The value of percent of control at 10^−7 M was more than 60% or the value of IC50 was more than 200 nM.).
The figure for `Cc1ccc(C(=O)NC[C@H]2CC[C@@H](Nc3nccc(N(C)C)n3)CC2)cc1[N+](=O)[O-]` [compound 388] is 3 (Class 3 The value of percent of control at 10^−7 M was more than 60% or the value of IC50 was more than 200 nM.); for `CN(C)c1ccnc(N[C@H]2CC[C@@H](CNC(=O)c3cccc([N+](=O)[O-])c3)CC2)n1` [compound 389] it is 3 (Class 3 The value of percent of control at 10^−7 M was more than 60% or the value of IC50 was more than 200 nM.).
Regarding `CN(C)c1ccnc(N[C@H]2CC[C@@H](CNC(=O)Cc3ccccc3)CC2)n1` [compound 390], the class is 3 (Class 3 The value of percent of control at 10^−7 M was more than 60% or the value of IC50 was more than 200 nM.).
The figure for `CN(C)c1ccnc(N[C@H]2CC[C@@H](CNC(=O)C3C[C@H]3c3ccccc3)CC2)n1` (some centres unmarked) [compound 391] is 3 (Class 3 The value of percent of control at 10^−7 M was more than 60% or the value of IC50 was more than 200 nM.); for `CN(C)c1ccnc(N[C@H]2CC[C@@H](CNC(=O)c3ccc4c(c3)OCO4)CC2)n1` [compound 392] it is 3 (Class 3 The value of percent of control at 10^−7 M was more than 60% or the value of IC50 was more than 200 nM.); for `Cc1cccc(C(=O)NC[C@H]2CC[C@@H](Nc3nccc(N(C)C)n3)CC2)c1` [compound 395] it is 3 (Class 3 The value of percent of control at 10^−7 M was more than 60% or the value of IC50 was more than 200 nM.).
Then `Cc1ccc(C(=O)NC[C@H]2CC[C@@H](Nc3nccc(N(C)C)n3)CC2)cc1` [compound 396], with 3 (Class 3 The value of percent of control at 10^−7 M was more than 60% or the value of IC50 was more than 200 nM.); and `CN(C)c1ccnc(N[C@H]2CC[C@@H](CNC(=O)c3cccs3)CC2)n1` [compound 397], with 3 (Class 3 The value of percent of control at 10^−7 M was more than 60% or the value of IC50 was more than 200 nM.); and `CN(C)c1ccnc(N[C@H]2CC[C@@H](CNC(=O)Cc3cccs3)CC2)n1` [compound 398], with 3 (Class 3 The value of percent of control at 10^−7 M was more than 60% or the value of IC50 was more than 200 nM.).
The figure for `CN(C)c1ccnc(N[C@H]2CC[C@@H](CNC(=O)c3cccc(OC(F)(F)F)c3)CC2)n1` [compound 399] is 3 (Class 3 The value of percent of control at 10^−7 M was more than 60% or the value of IC50 was more than 200 nM.); for `CN(C)c1ccnc(N[C@H]2CC[C@@H](CNC(=O)OCc3ccccc3)CC2)n1` [compound 400] it is 3 (Class 3 The value of percent of control at 10^−7 M was more than 60% or the value of IC50 was more than 200 nM.).
Turning to `CN(C)c1ccnc(N[C@H]2CC[C@@H](CNC(=O)OCc3ccc([N+](=O)[O-])cc3)CC2)n1` [compound 401], the class was 3 (Class 3 The value of percent of control at 10^−7 M was more than 60% or the value of IC50 was more than 200 nM.).
The figure for `Cc1cc(C(=O)NC[C@H]2CC[C@@H](Nc3nccc(N(C)C)n3)CC2)ccc1Br` [compound 402] is 3 (Class 3 The value of percent of control at 10^−7 M was more than 60% or the value of IC50 was more than 200 nM.); for `CN(C)c1ccnc(N[C@H]2CC[C@@H](CNC(=O)c3cccc(I)c3)CC2)n1` [compound 403] it is 3 (Class 3 The value of percent of control at 10^−7 M was more than 60% or the value of IC50 was more than 200 nM.).
Then `CN(C)c1ccnc(N[C@H]2CC[C@@H](CNC(=O)c3cccc(Cl)c3F)CC2)n1` [compound 404], with 3 (Class 3 The value of percent of control at 10^−7 M was more than 60% or the value of IC50 was more than 200 nM.); and `Cc1ccc(C(=O)NC[C@H]2CC[C@@H](Nc3nccc(N(C)C)n3)CC2)c(F)c1F` [compound 405], with 3 (Class 3 The value of percent of control at 10^−7 M was more than 60% or the value of IC50 was more than 200 nM.).
Then `CN(C)c1ccnc(N[C@H]2CC[C@@H](CNC(=O)c3ccc(F)cc3Cl)CC2)n1` [compound 406], with 3 (Class 3 The value of percent of control at 10^−7 M was more than 60% or the value of IC50 was more than 200 nM.).
